Reference: ChEMBL document CHEMBL5506073, “Discovery of Novel Ortho-Aminophenol Derivatives Targeting Lipid Peroxidation with Potent Antiferroptotic Activities” (J Med Chem, 2024)
Active and inactive are the calls of the source.

Experiments:
[1] = tested on: Mus musculus; assay: Protection against APAP-induced acute liver injury in overnight fasted C57BL/6 mouse model assessed as reduction in necrotic areas of liver at 10 mg/kg, ip administered 1 hr prior to APAP treatment measured after 12 hrs post-APAP treatment under continuous fasting condition by H and E staining based analysis; type: functional, organism-based; settings: time 13.0 hrs
[2] = tested on: HT-1080; assay: Inhibition of RSL3-induced ferroptosis in human HT-1080 cells assessed as cell viability at 0.5 uM incubated for 24 hrs by CCK8 assay; type: functional, cell-based
[3] = tested on: HT-1080; assay: Inhibition of ferroptosis in human HT-1080 cells assessed as reversal of RSL3-induced membrane rupture; type: functional, cell-based
[4] = tested on: HT-1080; assay: Inhibition of ferroptosis in human HT-1080 cells assessed as reversal of RSL3-induced swelling; type: functional, cell-based
[5] = tested on: Mus musculus; assay: Protection against APAP-induced acute liver injury in overnight fasted C57BL/6 mouse model assessed as reversal of native liver architecture at 10 mg/kg, ip administered 1 hr prior to APAP treatment measured after 12 hrs post-APAP treatment under continuous fasting condition by H and E staining based analysis; type: functional, organism-based; settings: time 13.0 hrs
[6] = tested on: Mus musculus; assay: Protection against kidney ischemia-reperfusion injury in C57BL/6 mouse model assessed as decrease in cytoplasmic vacuoles in kidney at 10 mg/kg, ip administered twice 1 hr prior to ischemia onset measured after 24 hrs post-ischemia by H and E staining based analysis; type: functional, organism-based; settings: time 25.0 hrs
[7] = Antioxidant activity assessed as DPPH radical scavenging activity at 10 uM incubated for 30 mins by absorbance based assay; type: functional
[8] = tested on: HTR-8/SVneo; assay: Inhibition of RSL3-induced ferroptosis in human HTR-8/SVneo cells assessed as cell viability at 200 nM incubated for 24 hrs by CCK8 assay; type: functional, cell-based
[9] = tested on: SW480; assay: Inhibition of FIN56-induced ferroptosis in human SW480 cells assessed as cell viability at 200 nM incubated for 24 hrs by CCK8 assay; type: functional, cell-based
[10] = tested on: Mus musculus; assay: Protection against APAP-induced acute liver injury in overnight fasted C57BL/6 mouse model assessed as decrease in plasma ALT level at 10 mg/kg, ip administered 1 hr prior to APAP treatment measured after 12 hrs post-APAP treatment under continuous fasting condition; type: functional, organism-based; settings: time 13.0 hrs
[11] = tested on: HKC; assay: Inhibition of RSL3-induced ferroptosis in human HKC cells assessed as cell viability at 200 nM incubated for 24 hrs by CCK8 assay; type: functional, cell-based
[12] = Antioxidant activity assessed as DPPH radical scavenging activity at 20 uM incubated for 30 mins by absorbance based assay; type: functional
[13] = tested on: Mus musculus; assay: Protection against kidney ischemia-reperfusion injury in C57BL/6 mouse model assessed as decrease in KIM-1 level in kidney at 10 mg/kg, ip administered twice 1 hr prior to ischemia onset measured after 24 hrs post-ischemia by IHC analysis; type: functional, organism-based; settings: time 25.0 hrs
[14] = tested on: Mus musculus; assay: Protection against kidney ischemia-reperfusion injury in C57BL/6 mouse model assessed as decrease in brush edges loss in kidney at 10 mg/kg, ip administered twice 1 hr prior to ischemia onset measured after 24 hrs post-ischemia by H and E staining based analysis; type: functional, organism-based; settings: time 25.0 hrs
[15] = tested on: HT-1080; assay: Inhibition of FIN56-induced ferroptosis in human HT-1080 cells assessed as cell viability at 200 nM incubated for 24 hrs by CCK8 assay; type: functional, cell-based
[16] = tested on: Mus musculus; assay: Protection against kidney ischemia-reperfusion injury in C57BL/6 mouse model assessed as decrease in BUN level at 10 mg/kg, ip administered twice 1 hr prior to ischemia onset measured after 24 hrs post-ischemia; type: functional, organism-based; settings: time 25.0 hrs
[17] = tested on: HT-1080; assay: Inhibition of ferroptosis in human HT-1080 cells assessed as reversal of RSL3-induced cell shrinkage; type: functional, cell-based
[18] = tested on: Mus musculus; assay: Protection against kidney ischemia-reperfusion injury in C57BL/6 mouse model assessed as decrease in serum creatinine level at 10 mg/kg, ip administered twice 1 hr prior to ischemia onset measured after 24 hrs post-ischemia; type: functional, organism-based; settings: time 25.0 hrs
[19] = tested on: HTR-8/SVneo; assay: Inhibition of FIN56-induced ferroptosis in human HTR-8/SVneo cells assessed as cell viability at 200 nM incubated for 24 hrs by CCK8 assay; type: functional, cell-based
[20] = tested on: KHOS/NP; assay: Inhibition of FIN56-induced ferroptosis in human KHOS/NP cells assessed as cell viability at 200 nM incubated for 24 hrs by CCK8 assay; type: functional, cell-based
[21] = tested on: HK-2; assay: Inhibition of FIN56-induced ferroptosis in human HK-2 cells assessed as cell viability at 200 nM incubated for 24 hrs by CCK8 assay; type: functional, cell-based
[22] = tested on: HT-1080; assay: Effect on iron metabolism in human HT-1080 cells assessed as change in TFRC mRNA level by qRT-PCR analysis; type: functional, cell-based
[23] = tested on: HT-1080; assay: Inhibition of RSL3-induced lipid peroxidation in human HT-1080 cells assessed as reduction in green fluorescence by C11-BODIPY581/591 probe based analysis; type: functional, cell-based
[24] = tested on: Mus musculus; assay: Protection against APAP-induced acute liver injury in overnight fasted C57BL/6 mouse model assessed as reduction in 4-HNE formation in liver at 10 mg/kg, ip administered 1 hr prior to APAP treatment measured after 12 hrs post-APAP treatment under continuous fasting condition by IHC analysis; type: functional, organism-based; settings: time 13.0 hrs
[25] = tested on: HT-1080; assay: Effect on iron metabolism in human HT-1080 cells assessed as change in FTH1 mRNA level by qRT-PCR analysis; type: functional, cell-based
[26] = tested on: HT-1080; assay: Effect on lipid metabolism in human HT-1080 cells assessed as change in ALOX15 mRNA level by qRT-PCR analysis; type: functional, cell-based
[27] = tested on: Mus musculus; assay: Protection against kidney ischemia-reperfusion injury in C57BL/6 mouse model assessed as decrease in renal tubule dilation at 10 mg/kg, ip administered twice 1 hr prior to ischemia onset measured after 24 hrs post-ischemia by H and E staining based analysis; type: functional, organism-based; settings: time 25.0 hrs
[28] = tested on: SW480; assay: Inhibition of RSL3-induced ferroptosis in human SW480 cells assessed as cell viability at 200 nM incubated for 24 hrs by CCK8 assay; type: functional, cell-based
[29] = tested on: HT-1080; assay: Inhibition of RSL3-induced lipid peroxidation in human HT-1080 cells assessed as reduction in MDA adduct accumulation by ELISA; type: functional, cell-based
[30] = tested on: HKC; assay: Inhibition of FIN56-induced ferroptosis in human HKC cells assessed as cell viability at 200 nM incubated for 24 hrs by CCK8 assay; type: functional, cell-based
[31] = tested on: HT-1080; assay: Effect on glutathione metabolic pathway in human HT-1080 cells assessed as change in GPX4 mRNA level by qRT-PCR analysis; type: functional, cell-based
[32] = tested on: HT-1080; assay: Inhibition of RSL3-induced ferroptosis in human HT-1080 cells assessed as cell viability incubated for 24 hrs by CCK8 assay; type: functional, cell-based; settings: HT-1080, 24 h
[33] = tested on: Mus musculus; assay: Protection against APAP-induced acute liver injury in overnight fasted C57BL/6 mouse model assessed as decrease in plasma AST level at 10 mg/kg, ip administered 1 hr prior to APAP treatment measured after 12 hrs post-APAP treatment under continuous fasting condition; type: functional, organism-based; settings: time 13.0 hrs
[34] = tested on: HT-1080; assay: Inhibition of ferroptosis in human HT-1080 cells assessed as reversal of RSL3-induced normal morphological loss; type: functional, cell-based
[35] = tested on: HT-1080; assay: Effect on lipid metabolism in human HT-1080 cells assessed as change in ACSL4 mRNA level by qRT-PCR analysis; type: functional, cell-based
[36] = tested on: HT-1080; assay: Effect on iron metabolism in human HT-1080 cells assessed as change in DMT1 mRNA level by qRT-PCR analysis; type: functional, cell-based
[37] = tested on: KHOS/NP; assay: Inhibition of RSL3-induced ferroptosis in human KHOS/NP cells assessed as cell viability at 200 nM incubated for 24 hrs by CCK8 assay; type: functional, cell-based
[38] = tested on: Mus musculus; assay: Protection against APAP-induced acute liver injury in overnight fasted C57BL/6 mouse model assessed as normal pathology of liver at 10 mg/kg, ip administered 1 hr prior to APAP treatment measured after 12 hrs post-APAP treatment under continuous fasting condition by H and E staining based analysis; type: functional, organism-based; settings: time 13.0 hrs
[39] = tested on: HT-1080; assay: Inhibition of RSL3-induced ferroptosis in human HT-1080 cells assessed as cell viability at 200 nM incubated for 24 hrs by CCK8 assay; type: functional, cell-based
[40] = tested on: HT-1080; assay: Effect on lipid metabolism in human HT-1080 cells assessed as change in COX2 mRNA level by qRT-PCR analysis; type: functional, cell-based
[41] = tested on: HK-2; assay: Inhibition of RSL3-induced ferroptosis in human HK-2 cells assessed as cell viability at 200 nM incubated for 24 hrs by CCK8 assay; type: functional, cell-based
[42] = tested on: HT-1080; assay: Effect on glutathione metabolic pathway in human HT-1080 cells assessed as change in SLC7A11 mRNA level by qRT-PCR analysis; type: functional, cell-based

CC(C)COC(=O)c1cccc(O)c1N
active: Activity [1] | inhibition [2] | inhibition [3] | inhibition [4] | Activity [5] | Activity [6] | Activity [7] | inhibition [8] | inhibition [9] | Activity [10] | inhibition [11] | Activity [12] | Activity [13] | Activity [14] | inhibition [15] | Activity [16] | inhibition [17] | Activity [18] | inhibition [19] | inhibition [20] | inhibition [21] | inhibition [23] | Activity [24] | Activity [27] | inhibition [28] | inhibition [29] | inhibition [30] | Activity [33] | inhibition [34] | inhibition [37] | Activity [38] | inhibition [39] | inhibition [41]
158 nM: EC50 [32]
inactive: Activity [22] | Activity [25] | Activity [26] | Activity [31] | Activity [35] | Activity [36] | Activity [40] | Activity [42]

Cc1cc2nc(-c3cccc(O)c3N)[nH]c2cc1C
active: Activity [1] | inhibition [3] | inhibition [4] | Activity [5] | Activity [6] | inhibition [8] | inhibition [9] | Activity [10] | inhibition [11] | Activity [12] | Activity [13] | Activity [14] | inhibition [15] | Activity [16] | inhibition [17] | Activity [18] | inhibition [19] | inhibition [20] | inhibition [21] | inhibition [23] | Activity [24] | Activity [27] | inhibition [28] | inhibition [29] | inhibition [30] | Activity [33] | inhibition [34] | inhibition [37] | Activity [38] | inhibition [39] | inhibition [41]
inactive: Activity [22] | Activity [25] | Activity [26] | Activity [31] | Activity [35] | Activity [36] | Activity [40] | Activity [42]
181 nM: EC50 [32]

COc1ccc(/C=N/NC(=O)c2cccc(O)c2N)cc1
active: Activity [1] | inhibition [3] | inhibition [4] | Activity [5] | Activity [6] | inhibition [8] | inhibition [9] | Activity [10] | inhibition [11] | Activity [12] | Activity [13] | Activity [14] | inhibition [15] | Activity [16] | inhibition [17] | Activity [18] | inhibition [19] | inhibition [20] | inhibition [21] | inhibition [23] | Activity [24] | Activity [27] | inhibition [28] | inhibition [29] | inhibition [30] | Activity [33] | inhibition [34] | inhibition [37] | Activity [38] | inhibition [39] | inhibition [41]
40.5 nM: EC50 [32]
inactive: Activity [22] | Activity [25] | Activity [26] | Activity [31] | Activity [35] | Activity [36] | Activity [40] | Activity [42]
